Assay results taken from patent publication US20240132431A1, “METHOD FOR ALKYLATING ACIDIC FUNCTIONAL GROUP” (Chugai Seiyaku Kabushiki Kaisha, priority 2021, published 2024).

Target: T1, Bcl-2 protein (Recombinant Human Bcl-2 Protein) (Homo sapiens, UniProt P10415)
T1 construct: purchased Novus NBP2-34889
Test: Binding evaluation of mixture library compounds to Bcl-2 using AS-MS (affinity selection mass spectrometry)
Conditions: for ASMS ratio (%) n = 1: replicate n = 1; for ASMS ratio (%) n = 1 / ASMS ratio (%) n = 2: ASMS Ratio(%)=(A−C)/B×100; for ASMS ratio (%) n = 2: replicate n = 2
Outline: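 ASMS Ratio (%) was calculated as (A−C)/B×100, where A is the protein sample after SEC, B the protein-free sample without SEC and C the protein-free sample after SEC. Each compound was at […] in a 1200-member pool with 20 μM Bcl-2, incubated 1 h at 23° C.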

[1] = AS-MS on the mixture of 1200 library compounds
[2] = AS-MS, mixture of 1200 compounds, Bcl-2

T1 sequence (P10415 whole entry): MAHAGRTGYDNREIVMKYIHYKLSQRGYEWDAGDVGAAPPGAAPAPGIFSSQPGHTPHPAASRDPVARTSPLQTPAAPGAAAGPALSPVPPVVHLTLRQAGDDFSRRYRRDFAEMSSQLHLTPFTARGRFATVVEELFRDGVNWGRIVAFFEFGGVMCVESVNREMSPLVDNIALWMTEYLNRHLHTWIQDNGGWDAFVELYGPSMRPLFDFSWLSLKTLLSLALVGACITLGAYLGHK

CCOc1cccc(-c2cc(C(=O)N3CCN(c4ccc(C(=O)NS(C)(=O)=O)cc4)CC3)cc(C(C)(C)C)c2)c1 [B2I037-01, 4-[4-[3-tert-Butyl-5-(3-ethoxyphenyl)benzoyl]piperazin-1-yl]-N-methylsulfonylbenzamide]
ASMS ratio (%) n = 1 (AS-MS, mixture library, Bcl-2): 0.0%
ASMS ratio (%) n = 2 (AS-MS, mixture library, Bcl-2): 3.3%

CCOc1cccc(-c2cc(CN3CCN(c4ccc(C(=O)NS(=O)(=O)CC56CC7CC(CC(C7)C5)C6)cc4)CC3)cc(OC(C)C)c2)c1 [B2A057-01, N-(1-Adamantylmethylsulfonyl)-4-[4-[[3-(3-ethoxyphenyl)-5-propan-2-yloxyphenyl]methyl]piperazin-1-yl]benzamide]
ASMS ratio (%) n = 1 (AS-MS, mixture library, Bcl-2): −4.8%
ASMS ratio (%) n = 2 (AS-MS, mixture library, Bcl-2): −5.3%

CCOc1cncc(-c2csc(C(=O)N3CCN(c4ccc(C(=O)NS(=O)(=O)CC56CC7CC(CC(C7)C5)C6)nn4)CC3)c2)c1 [B2A002-01, N-(1-Adamantylmethylsulfonyl)-6-[4-[4-(5-ethoxypyridin-3-yl)thiophene-2-carbonyl]piperazin-1-yl]pyridazine-3-carboxamide]
ASMS ratio (%) n = 1 (AS-MS, mixture library, Bcl-2): 0.0%
ASMS ratio (%) n = 2 (AS-MS, mixture library, Bcl-2): 0.0%

CCOc1cncc(-c2ccc(C(C)N3CCN(c4ccc(C(=O)N(CC)CC)cc4)CC3)cc2)c1 (stereo not shown) [B4J098-01, 4-[4-[1-[4-(5-Ethoxypyridin-3-yl)phenyl]ethyl]piperazin-1-yl]-N,N-diethylbenzamide]
ASMS ratio (%) n = 1 (AS-MS, mixture library, Bcl-2): −2.0%
ASMS ratio (%) n = 2 (AS-MS, mixture library, Bcl-2): −0.2%

CCOc1cncc(-c2cc(OC)c(CN3CCN(c4ccc(C(=O)NS(=O)(=O)C(C)(C)C)cc4)CC3)c(OC)c2)c1 [B2L060-01, N-tert-Butylsulfonyl-4-[4-[[4-(5-ethoxypyridin-3-yl)-2,6-dimethoxyphenyl]methyl]piperazin-1-yl]benzamide]
ASMS ratio (%) (n = 2): 0.0%

CCOc1cncc(-c2ccccc2CCC(=O)N2CCN(c3ccc(C(=O)NS(=O)(=O)C(C)(C)C)nn3)CC2)c1 [B2L012-01, N-tert-Butylsulfonyl-6-[4-[3-[2-(5-ethoxypyridin-3-yl)phenyl]propanoyl]piperazin-1-yl]pyridazine-3-carboxamide]
ASMS ratio (%) (n = 1): 4.3%
ASMS ratio (%) (n = 2): 7.3%

CCOc1cccc(-c2ccccc2CCC(=O)N2CCN(c3ccc(C(=O)Nc4ccc(OC)cc4)nn3)CC2)c1 [B1O011-01, 6-[4-[3-[2-(3-Ethoxyphenyl)phenyl]propanoyl]piperazin-1-yl]-N-(4-methoxyphenyl)pyridazine-3-carboxamide]
ASMS ratio (%) n = 1 [1]: 0.0%
ASMS ratio (%) n = 2 [1]: 4.3%

CCOc1cncc(-c2cc(OC)c(CN3CCN(c4ccc(C(=O)NS(=O)(=O)c5ccc(NCCSc6ccccc6)c([N+](=O)[O-])c5)cc4)CC3)c(OC)c2)c1 [B2Q060-01, 4-[4-[[4-(5-Ethoxypyridin-3-yl)-2,6-dimethoxyphenyl]methyl]piperazin-1-yl]-N-[3-nitro-4-(2-phenylsulfanylethylamino)phenyl]sulfonylbenzamide]
ASMS ratio (%) n = 1 (AS-MS, mixture library, Bcl-2): 0.0%
ASMS ratio (%) n = 2 (AS-MS, mixture library, Bcl-2): 0.0%

CCOc1cccc(-c2cc(CN3CCN(c4ccc(C(=O)N(C)CC56CC7CC(CC(C7)C5)C6)nn4)CC3)cc(C(F)(F)F)c2)c1 [B3A087-01, N-(1-Adamantylmethyl)-6-[4-[[3-(3-ethoxyphenyl)-5-(trifluoromethyl)phenyl]methyl]piperazin-1-yl]-N-methylpyridazine-3-carboxamide]
ASMS ratio (%) n = 1 [1]: 0.4%
ASMS ratio (%) n = 2 [1]: 1.4%

CCOc1cncc(-c2ccc(C(=O)N3CCN(c4ccc(C(=O)NS(=O)(=O)C(C)(C)C)cc4)CC3)c3ccccc23)c1 [B2L036-01, N-tert-Butylsulfonyl-4-[4-[4-(5-ethoxypyridin-3-yl)naphthalene-1-carbonyl]piperazin-1-yl]benzamide]
ASMS ratio (%) (n = 1): 0.0%
ASMS ratio (%) (n = 2): 0.0%

4-[4-[3-[4-(3-Ethoxyphenyl)pyrazol-1-yl]-5-(trifluoromethyl)benzoyl]piperazin-1-yl]-N-propylbenzamide [B1M025-01]
ASMS ratio (%) n = 1 [2]: 3.6%
ASMS ratio (%) n = 2 [2]: −1.2%

CCOc1cccc(-c2cc(CN3CCN(c4ccc(C(=O)NCC(F)(F)F)nn4)CC3)cc(OCC)c2)c1 [B1K081-01, 6-[4-[[3-Ethoxy-5-(3-ethoxyphenyl)phenyl]methyl]piperazin-1-yl]-N-(2,2,2-trifluoroethyl)pyridazine-3-carboxamide]
ASMS ratio (%) n = 1 [2]: 2.3%
ASMS ratio (%) n = 2 [2]: −0.4%

CCOc1cncc(-c2ccccc2CCC(=O)N2CCN(c3ccc(C(=O)NS(=O)(=O)CC45CC6CC(CC(C6)C4)C5)cc3)CC2)c1 [B2A034-01, N-(1-Adamantylmethylsulfonyl)-4-[4-[3-[2-(5-ethoxypyridin-3-yl)phenyl]propanoyl]piperazin-1-yl]benzamide]
ASMS ratio (%) n = 1 (AS-MS, mixture library, Bcl-2): 1.6%
ASMS ratio (%) n = 2 (AS-MS, mixture library, Bcl-2): 0.3%

CCOc1cncc(-c2ccc(C(=O)N3CCN(c4ccc(C(=O)NCC(F)(F)F)cc4)CC3)cc2C)c1 [B1K026-01, 4-[4-[4-(5-Ethoxypyridin-3-yl)-3-methylbenzoyl]piperazin-1-yl]-N-(2,2,2-trifluoroethyl)benzamide]
ASMS ratio (%) n = 1 [2]: 4.2%
ASMS ratio (%) n = 2 [2]: 0.2%

CCOc1cccc(-c2csc(CN3CCN(c4ccc(C(=O)NS(=O)(=O)CC56CC7CC(CC(C7)C5)C6)nn4)CC3)c2)c1 [B2A093-01, N-(1-Adamantylmethylsulfonyl)-6-[4-[[4-(3-ethoxyphenyl)thiophen-2-yl]methyl]piperazin-1-yl]pyridazine-3-carboxamide]
ASMS ratio (%) n = 1 (AS-MS, mixture library, Bcl-2): 13.0%
ASMS ratio (%) n = 2 (AS-MS, mixture library, Bcl-2): 0.0%

CCOc1cccc(C#Cc2ccccc2CN2CCN(c3ccc(C(=O)NS(C)(=O)=O)cc3)CC2)c1 [B2I069-01]
ASMS ratio (%) (n = 1): 0.0%
ASMS ratio (%) (n = 2): −2.2%

CCOc1cncc(-c2ccc(CN3CCN(c4ccc(C(=O)Nc5ccc(OC)cc5)nn4)CC3)cc2F)c1 [B1O078-01]
ASMS ratio (%) n = 1 [1]: 4.8%
ASMS ratio (%) n = 2 [1]: 1.8%

CCOc1cncc(-c2cc(C(=O)N3CCN(c4ccc(C(=O)NS(C)(=O)=O)cc4)CC3)cc(C(C)(C)C)c2)c1 [B2I038-01, 4-[4-[3-tert-Butyl-5-(5-ethoxypyridin-3-yl)benzoyl]piperazin-1-yl]-N-methylsulfonylbenzamide]
ASMS ratio (%) n = 1 (AS-MS, mixture library, Bcl-2): 0.0%
ASMS ratio (%) n = 2 (AS-MS, mixture library, Bcl-2): 0.0%

CCOc1cncc(-c2ccccc2CN2CCN(c3ccc(C(=O)NS(C)(=O)=O)cc3)CC2)c1 [B2I046-01, 4-[4-[[2-(5-Ethoxypyridin-3-yl)phenyl]methyl]piperazin-1-yl]-N-methylsulfonylbenzamide]
ASMS ratio (%) (n = 1): −0.6%
ASMS ratio (%) (n = 2): 1.5%

CCOc1cccc(-c2cc(C(=O)N3CCN(c4ccc(C(=O)Nc5ccc(OC)cc5)cc4)CC3)cc(C(C)(C)C)c2)c1 [B1O037-01, 4-[4-[3-tert-Butyl-5-(3-ethoxyphenyl)benzoyl]piperazin-1-yl]-N-(4-methoxyphenyl)benzamide]
ASMS ratio (%) n = 1 [1]: 4.7%
ASMS ratio (%) n = 2 [1]: −1.7%

CCOc1cncc(-c2cc(CN3CCN(c4ccc(C(=O)NS(=O)(=O)c5ccc(NCCSc6ccccc6)c([N+](=O)[O-])c5)nn4)CC3)cc(OC(C)C)c2)c1 [B2Q084-01, 6-[4-[[3-(5-Ethoxypyridin-3-yl)-5-propan-2-yloxyphenyl]methyl]piperazin-1-yl]-N-[3-nitro-4-(2-phenylsulfanylethylamino)phenyl]sulfonylpyridazine-3-carboxamide]
ASMS ratio (%) n = 1 (AS-MS, mixture library, Bcl-2): 12.6%
ASMS ratio (%) n = 2 (AS-MS, mixture library, Bcl-2): −4.9%

CCOc1cccc(C#Cc2ccccc2C(=O)N2CCN(c3ccc(C(=O)N(CC)CC)nn3)CC2)c1 [B4J007-01, 6-[4-[2-[2-(3-Ethoxyphenyl)ethynyl]benzoyl]piperazin-1-yl]-N,N-diethylpyridazine-3-carboxamide]
ASMS ratio (%) n = 1 [1]: −1.0%
ASMS ratio (%) n = 2 [1]: 1.5%

6-[4-[[3-(5-Ethoxypyridin-3-yl)-5-propan-2-yloxyphenyl]methyl]piperazin-1-yl]-N-propylpyridazine-3-carboxamide [B1M066-01]
ASMS ratio (%) n = 1 [2]: 0.0%
ASMS ratio (%) n = 2 [2]: 4.4%

CCOc1cncc(C#Cc2cncc(C(=O)N3CCN(c4ccc(C(=O)NS(=O)(=O)c5ccc(NCCSc6ccccc6)c(C(F)(F)F)c5)cc4)CC3)c2)c1 [B2R032-01, 4-[4-[5-[2-(5-Ethoxypyridin-3-yl)ethynyl]pyridine-3-carbonyl]piperazin-1-yl]-N-[4-(2-phenylsulfanylethylamino)-3-(trifluoromethyl)phenyl]sulfonylbenzamide]
ASMS ratio (%) (n = 1): 6.4%
ASMS ratio (%) (n = 2): 0.0%

CCOc1cccc(-c2csc(CN3CCN(c4ccc(C(=O)NS(=O)(=O)CC56CC7CC(CC(C7)C5)C6)cc4)CC3)c2)c1 [B2A067-01, N-(1-Adamantylmethylsulfonyl)-4-[4-[[4-(3-ethoxyphenyl)thiophen-2-yl]methyl]piperazin-1-yl]benzamide]
ASMS ratio (%) n = 1 (AS-MS, mixture library, Bcl-2): 0.0%
ASMS ratio (%) n = 2 (AS-MS, mixture library, Bcl-2): 0.0%

CCOc1cccc(C#Cc2ccccc2C(=O)N2CCN(c3ccc(C(=O)NS(=O)(=O)c4ccc(NCCSc5ccccc5)c(C(F)(F)F)c4)nn3)CC2)c1 [B2R007-01, 6-[4-[2-[2-(3-Ethoxyphenyl)ethynyl]benzoyl]piperazin-1-yl]-N-[4-(2-phenylsulfanylethylamino)-3-(trifluoromethyl)phenyl]sulfonylpyridazine-3-carboxamide]
ASMS ratio (%) (n = 1): 0.0%

CCOc1cncc(-c2ccc(CN3CCN(c4ccc(C(=O)NS(C)(=O)=O)nn4)CC3)cc2C)c1 [B2I074-01, 6-[4-[[4-(5-Ethoxypyridin-3-yl)-3-methylphenyl]methyl]piperazin-1-yl]-N-methylsulfonylpyridazine-3-carboxamide]
ASMS ratio (%) (n = 1): 0.0%
ASMS ratio (%) (n = 2): −8.4%
